Consider six molecules from ChEMBL document CHEMBL1129269, “1-aryl-4-[(1-tetralinyl)alkyl]piperazines: alkylamido and alkylamino derivatives. Synthesis, 5-HT1A receptor affinity, and selectivity. 3” (J Med Chem, 1996).

Assay [1] has as its target T1, 5-hydroxytryptamine receptor 1A (Rattus norvegicus, UniProt P19327).
T1 sequence (P19327 whole entry): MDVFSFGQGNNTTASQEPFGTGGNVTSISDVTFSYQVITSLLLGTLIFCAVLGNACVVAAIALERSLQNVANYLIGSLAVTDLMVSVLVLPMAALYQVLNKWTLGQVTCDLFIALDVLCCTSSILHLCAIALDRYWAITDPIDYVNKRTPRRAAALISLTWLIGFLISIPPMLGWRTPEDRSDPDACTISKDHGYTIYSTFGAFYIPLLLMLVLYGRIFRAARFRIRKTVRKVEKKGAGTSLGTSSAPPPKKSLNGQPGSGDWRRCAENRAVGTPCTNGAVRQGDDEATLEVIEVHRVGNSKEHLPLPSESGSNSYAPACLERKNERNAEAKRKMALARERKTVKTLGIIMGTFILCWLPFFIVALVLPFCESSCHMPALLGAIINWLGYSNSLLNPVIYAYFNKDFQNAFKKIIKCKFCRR
The assay is described as follows: Binding affinity against serotonin 5-hydroxytryptamine 1A receptor in rat hippocampus membrane using [3H]8-OH-DPAT as radioligand. In kind it is cell membranes.

Assay [2] has as its target T2, Adrenergic receptor alpha-2 (Rattus norvegicus, UniProt P22086+P19328+P22909).
T2 sequence (P22086 whole entry): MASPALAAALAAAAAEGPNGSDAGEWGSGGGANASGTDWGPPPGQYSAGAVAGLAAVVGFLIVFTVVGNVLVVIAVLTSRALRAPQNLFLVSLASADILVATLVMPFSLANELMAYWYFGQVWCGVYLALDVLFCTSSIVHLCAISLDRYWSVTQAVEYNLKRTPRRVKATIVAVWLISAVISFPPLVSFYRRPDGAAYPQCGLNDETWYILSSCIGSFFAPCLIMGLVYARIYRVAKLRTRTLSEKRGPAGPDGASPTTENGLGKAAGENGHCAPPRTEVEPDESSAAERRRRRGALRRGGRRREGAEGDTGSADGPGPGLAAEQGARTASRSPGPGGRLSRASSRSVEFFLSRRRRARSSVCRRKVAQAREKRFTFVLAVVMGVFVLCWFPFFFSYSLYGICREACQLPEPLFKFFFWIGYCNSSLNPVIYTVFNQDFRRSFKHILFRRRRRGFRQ
T2 sequence (P19328 whole entry): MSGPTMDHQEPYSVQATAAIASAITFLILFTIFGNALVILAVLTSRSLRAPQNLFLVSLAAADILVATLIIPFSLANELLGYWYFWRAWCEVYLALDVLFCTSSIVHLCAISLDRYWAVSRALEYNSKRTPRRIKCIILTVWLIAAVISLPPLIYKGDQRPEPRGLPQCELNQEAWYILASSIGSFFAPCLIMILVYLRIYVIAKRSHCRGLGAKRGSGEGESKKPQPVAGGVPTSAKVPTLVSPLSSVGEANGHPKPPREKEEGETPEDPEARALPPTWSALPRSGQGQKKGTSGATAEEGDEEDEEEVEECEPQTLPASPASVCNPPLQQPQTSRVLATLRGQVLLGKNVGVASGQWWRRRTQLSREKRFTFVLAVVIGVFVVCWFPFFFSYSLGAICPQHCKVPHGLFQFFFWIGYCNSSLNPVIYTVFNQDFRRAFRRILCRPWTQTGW
T2 sequence (P22909 whole entry): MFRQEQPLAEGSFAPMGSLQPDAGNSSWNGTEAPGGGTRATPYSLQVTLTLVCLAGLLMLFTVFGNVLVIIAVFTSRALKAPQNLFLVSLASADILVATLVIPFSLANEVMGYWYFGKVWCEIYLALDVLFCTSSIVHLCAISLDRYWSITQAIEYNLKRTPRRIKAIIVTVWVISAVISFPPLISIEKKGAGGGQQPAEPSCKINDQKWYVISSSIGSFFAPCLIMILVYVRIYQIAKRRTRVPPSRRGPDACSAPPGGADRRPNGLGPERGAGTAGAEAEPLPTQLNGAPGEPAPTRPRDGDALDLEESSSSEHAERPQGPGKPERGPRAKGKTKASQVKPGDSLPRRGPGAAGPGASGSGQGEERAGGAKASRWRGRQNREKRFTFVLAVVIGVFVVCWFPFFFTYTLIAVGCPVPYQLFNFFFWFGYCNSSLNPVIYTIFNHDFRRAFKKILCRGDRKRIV
The assay is described as follows: Binding affinity against Alpha-2 adrenergic receptor in rat brain membrane using [3H]yohimbine as radioligand. In kind it is cell membranes.

Assay [3] deals with T3, D(2) dopamine receptor (Rattus norvegicus, UniProt P61169). The assay is described as follows: Binding affinity against Dopamine receptor D2 in rat striatal membrane using [3H]spiroperidol as radioligand. Format: cell membranes, Striatum.
T3 sequence (P61169 whole entry): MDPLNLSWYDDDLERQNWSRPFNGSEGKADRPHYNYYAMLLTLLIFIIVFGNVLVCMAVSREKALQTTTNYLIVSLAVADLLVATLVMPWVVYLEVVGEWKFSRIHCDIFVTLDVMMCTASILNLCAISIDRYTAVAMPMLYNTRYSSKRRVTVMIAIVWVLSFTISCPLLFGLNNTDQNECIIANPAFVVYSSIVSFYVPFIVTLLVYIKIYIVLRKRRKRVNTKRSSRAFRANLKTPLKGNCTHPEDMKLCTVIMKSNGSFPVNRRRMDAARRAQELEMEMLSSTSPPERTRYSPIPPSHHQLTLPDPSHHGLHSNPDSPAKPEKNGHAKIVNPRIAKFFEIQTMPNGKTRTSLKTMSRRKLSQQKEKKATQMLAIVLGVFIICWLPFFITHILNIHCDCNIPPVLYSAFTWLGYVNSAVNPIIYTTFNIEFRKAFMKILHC
Assay [4] addresses T4, Adrenergic receptor alpha-1 (Rattus norvegicus, UniProt P15823+P23944+P43140).
T4 sequence (P15823 whole entry): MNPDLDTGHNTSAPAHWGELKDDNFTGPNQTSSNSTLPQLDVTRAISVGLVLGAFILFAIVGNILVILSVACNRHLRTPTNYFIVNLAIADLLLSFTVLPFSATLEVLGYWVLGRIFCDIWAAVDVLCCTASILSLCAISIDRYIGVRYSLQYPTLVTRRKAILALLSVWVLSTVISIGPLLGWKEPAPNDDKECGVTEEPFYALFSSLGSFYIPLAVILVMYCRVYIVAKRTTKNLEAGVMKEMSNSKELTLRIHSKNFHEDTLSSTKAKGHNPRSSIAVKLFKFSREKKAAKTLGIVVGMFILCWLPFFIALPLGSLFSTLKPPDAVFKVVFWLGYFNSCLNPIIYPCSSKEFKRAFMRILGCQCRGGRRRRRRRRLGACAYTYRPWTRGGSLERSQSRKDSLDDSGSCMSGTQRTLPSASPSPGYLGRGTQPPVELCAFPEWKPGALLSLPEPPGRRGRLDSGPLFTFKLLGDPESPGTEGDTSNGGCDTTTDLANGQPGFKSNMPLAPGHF
T4 sequence (P23944 whole entry): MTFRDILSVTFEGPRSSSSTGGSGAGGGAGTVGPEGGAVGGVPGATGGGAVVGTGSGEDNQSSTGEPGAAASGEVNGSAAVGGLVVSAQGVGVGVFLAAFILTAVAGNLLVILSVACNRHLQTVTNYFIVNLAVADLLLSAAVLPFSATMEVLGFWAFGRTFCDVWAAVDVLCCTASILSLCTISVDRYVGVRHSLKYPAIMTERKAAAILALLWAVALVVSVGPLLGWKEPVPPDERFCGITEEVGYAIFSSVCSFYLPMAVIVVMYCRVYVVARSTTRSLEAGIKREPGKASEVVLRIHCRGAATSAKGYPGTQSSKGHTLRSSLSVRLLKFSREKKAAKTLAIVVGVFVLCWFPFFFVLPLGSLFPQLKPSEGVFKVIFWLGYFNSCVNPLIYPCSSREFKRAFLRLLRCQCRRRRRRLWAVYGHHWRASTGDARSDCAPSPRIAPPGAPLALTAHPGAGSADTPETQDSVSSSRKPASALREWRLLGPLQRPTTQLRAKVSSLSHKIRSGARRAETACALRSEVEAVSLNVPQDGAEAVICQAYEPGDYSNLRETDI
T4 sequence (P43140 whole entry): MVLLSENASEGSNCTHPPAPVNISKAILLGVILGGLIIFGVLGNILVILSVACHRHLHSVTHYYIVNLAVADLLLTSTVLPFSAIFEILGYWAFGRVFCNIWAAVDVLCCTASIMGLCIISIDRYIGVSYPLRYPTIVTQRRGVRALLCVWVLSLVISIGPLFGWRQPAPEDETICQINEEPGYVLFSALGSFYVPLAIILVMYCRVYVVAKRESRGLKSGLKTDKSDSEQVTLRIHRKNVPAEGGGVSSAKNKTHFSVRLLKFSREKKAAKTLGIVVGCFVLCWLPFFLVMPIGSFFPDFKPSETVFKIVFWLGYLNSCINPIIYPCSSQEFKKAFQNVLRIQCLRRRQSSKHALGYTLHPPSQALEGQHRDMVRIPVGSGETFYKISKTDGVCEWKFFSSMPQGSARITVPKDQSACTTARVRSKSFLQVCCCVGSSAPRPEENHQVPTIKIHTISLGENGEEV
The assay is described as follows: Binding affinity against Alpha-1 adrenergic receptor in rat brain membrane using [3H]prazosin as radioligand. Format: cell membranes.

Assay [5] concerns the target Serotonin 2 (5-HT2) receptor (Rattus norvegicus, UniProt P30994+P08909+P14842). The assay is described as follows: Binding affinity against 5-hydroxytryptamine 2 receptor in rat brain using [3H]ketanserin as radioligand. In kind it is tissue-based.
For assay [6], the target named is T3, D(2) dopamine receptor. The assay is described as follows: Compound was evaluated for their affinity against Dopamine receptor D2 by displacing [3H]spiperone in rat striatal membrane. In kind it is cell membranes, Striatum.
Assay [7] has as its target T1, 5-hydroxytryptamine receptor 1A. The assay is described as follows: Binding affinity against 5-hydroxytryptamine 1A receptor in rat hippocampus membranes using [3H]8-OH-DPAT as radioligand. Format: cell membranes, Membrane.
Assay [8] addresses T3, D(2) dopamine receptor. The assay is described as follows: biochemical.
Description: Binding affinity to rat Dopamine receptor D2 expressed in CHO cells was determined using [125 I ] iodosulpride as radioligand

Molecules are shown by their SMILES. pIC50: −log10 of the molar value.

What is called pIC50 is the negative decadic logarithm of the IC50, by convention in mol/L. Lower therefore signals a high IC50. Broadly, the IC50 is the midpoint of a concentration-inhibition curve.

`COc1cccc2c1CCCC2C(=O)NCCN1CCN(c2ccccn2)CC1` (stereo not drawn): the results for the pIC50 (in assay [1]; at D(2) dopamine receptor [3]) were 6.76 and 5.61, respectively. Also, the IC50 in assay [2] amounted to 7.22 µM; in assay [4] it was 0.838 µM; in assay [5], 1.27 µM.

As for `COc1ccccc1N1CCN(CCNC2CCCc3c(OC)cccc32)CC1` (stereo not drawn), the figures for the IC50 in assay [2], in assay [4] and in assay [5] were 0.28 µM, 0.22 µM and 2.58 µM, respectively. Further, the figures for the pIC50 (at D(2) dopamine receptor [6]; in assay [7]) were 6.42 and 8.11, respectively.

In the case of `COc1cccc2c1CCCC2C(=O)NCCCN1CCN(c2ccccc2)CC1` (stereo not drawn), the pIC50 in assay [1] was 7.20; at D(2) dopamine receptor [3], 6.11. In addition, the IC50 came to 0.186 µM in assay [2], 0.019 µM in assay [4] and 0.349 µM in assay [5].

As to `COc1cccc2c1CCCC2CCCN1CCN(c2ccccc2)CC1` (stereo not drawn), the figures for the pIC50 (in assay [1]; on D(2) dopamine receptor [8]) were 9.30 and 6.96, respectively. The figures for the IC50 in assay [2], in assay [4] and in assay [5] were 0.26 µM, 0.043 µM and 0.23 µM, respectively.

On to `COc1cccc2c1CCCC2CCCN1CCN(c2ccccn2)CC1` (stereo not drawn), for which the pIC50 in assay [1] was 9.27; on D(2) dopamine receptor [8], 6.85. The IC50 was 0.048 µM in assay [2], 0.066 µM in assay [4] and 0.25 µM in assay [5].

Take `CCCN(CCC)C1CCc2cccc(O)c2C1` (stereo not drawn) [8-OH-DPAT]: the IC50 is 0.81 µM in assay [2] and more than 10 µM in assay [5]. The molecule further had a pIC50 on D(2) dopamine receptor [8] of 8.28.
